Results on one compound are retold here after PMC5218480 (PLoS ONE, 2017).

The subject of the assay is MV-4-11 cells. Kind of assay: Gene expression microarray analysis (Affymetrix PrimeView) and GSEA. Format: cell-based, human. Further details: RFU PODN (11730768_x_at) / Fold change /veh PODN (11730768_x_at) / RFU LINC00158 (11744669_a_at) / Fold change /veh LINC00158 (11744669_a_at) / RFU DUSP10 (11751237_a_at) / Fold change /veh DUSP10 (11751237_a_at) / RFU ID3 (11757404_x_at) / Fold change /veh ID3 (11757404_x_at) / RFU PLEKHG5 (11737974_s_at) / Fold change /veh PLEKHG5 (11737974_s_at) / RFU LRRC4B (11730491_at) / Fold change /veh LRRC4B (11730491_at) / RFU GIMAP4 (11747438_a_at) / Fold change /veh GIMAP4 (11747438_a_at) / RFU KRT8 (11758183_x_at) / Fold change /veh KRT8 (11758183_x_at) / RFU CNN1 (11734310_a_at) / Fold change /veh CNN1 (11734310_a_at) / RFU VPS37D (11726825_at) / Fold change /veh VPS37D (11726825_at) / RFU C10orf10 (11716522_x_at) / Fold change /veh C10orf10 (11716522_x_at) / RFU KIR2DL2 /// KIR2DL4 /// KIR2DL5A /// KIR2DL5B /// KIR2DS1 /// KIR2DS2 /// KIR2DS3 /// KIR2DS4 /// KIR3DL3 /// KIR3DL3 /// KIR3DS1 (11738374_at) / Fold change /veh KIR2DL2 /// KIR2DL4 /// KIR2DL5A /// KIR2DL5B /// KIR2DS1 /// KIR2DS2 /// KIR2DS3 /// KIR2DS4 /// KIR3DL3 /// KIR3DL3 /// KIR3DS1 (11738374_at) / RFU C1QL1 (11718748_at) / Fold change /veh C1QL1 (11718748_at) / RFU TMPRSS4 (11747572_a_at) / Fold change /veh TMPRSS4 (11747572_a_at) / RFU HAMP (11756126_x_at) / Fold change /veh HAMP (11756126_x_at) / RFU RNFT2 (11725882_a_at) / Fold change /veh RNFT2 (11725882_a_at) / RFU NR4A2 (11747474_a_at) / Fold change /veh NR4A2 (11747474_a_at) / RFU ABCC12 (11746883_a_at) / Fold change /veh ABCC12 (11746883_a_at) / RFU TMEM136 (11760407_x_at) / Fold change /veh TMEM136 (11760407_x_at) / RFU CLDN22 /// WWC2 (11732394_at) / Fold change /veh CLDN22 /// WWC2 (11732394_at) / RFU HLA-DPB1 (11760878_x_at) / Fold change /veh HLA-DPB1 (11760878_x_at) / RFU SPINT1 (11716480_a_at) / Fold change /veh SPINT1 (11716480_a_at) / RFU GAP43 (11754022_s_at) / Fold change /veh GAP43 (11754022_s_at) / RFU A4GNT (11735810_at) / Fold change /veh A4GNT (11735810_at) / RFU PRB3 (11715151_x_at) / Fold change /veh PRB3 (11715151_x_at) / RFU TUBB4B (11761932_at) / Fold change /veh TUBB4B (11761932_at) / RFU CAPN14 (11732068_a_at) / Fold change /veh CAPN14 (11732068_a_at) / RFU TMCC2 (11721928_a_at) / Fold change /veh TMCC2 (11721928_a_at) / RFU IRGQ (11745062_a_at) / Fold change /veh IRGQ (11745062_a_at) / RFU FAM174B (11720279_a_at) / Fold change /veh FAM174B (11720279_a_at) / RFU TMPRSS4 (11748680_a_at) / Fold change /veh TMPRSS4 (11748680_a_at) / RFU FAM212B (11763350_a_at) / Fold change /veh FAM212B (11763350_a_at) / RFU PLEKHG5 (11743358_a_at) / Fold change /veh PLEKHG5 (11743358_a_at) / RFU ZSCAN30 (11745921_a_at) / Fold change /veh ZSCAN30 (11745921_a_at) / RFU CMKLR1 (11741424_a_at) / Fold change /veh CMKLR1 (11741424_a_at) / RFU LOC101060620 /// MAPK8IP1 (11723275_at) / Fold change /veh LOC101060620 /// MAPK8IP1 (11723275_at) / RFU SPTSSB (11747773_x_at) / Fold change /veh SPTSSB (11747773_x_at) / RFU PRSS12 (11739890_at) / Fold change /veh PRSS12 (11739890_at) / RFU BIN1 (11741810_x_at) / Fold change /veh BIN1 (11741810_x_at) / RFU WNT11 (11732464_a_at) / Fold change /veh WNT11 (11732464_a_at) / RFU C10orf10 (11716521_a_at) / Fold change /veh C10orf10 (11716521_a_at) / RFU C5orf56 (11738089_at) / Fold change /veh C5orf56 (11738089_at) / RFU CYB561 (11721691_x_at) / Fold change /veh CYB561 (11721691_x_at) / RFU ANKRD19P (11752326_a_at) / Fold change /veh ANKRD19P (11752326_a_at) / RFU OR2T12 /// OR2T33 /// OR2T8 (11738714_s_at) / Fold change /veh OR2T12 /// OR2T33 /// OR2T8 (11738714_s_at) / RFU VCAN (11748164_a_at) / Fold change /veh VCAN (11748164_a_at) / RFU JSRP1 (11732532_at) / Fold change /veh JSRP1 (11732532_at) / RFU KRTAP10-11 (11738290_x_at) / Fold change /veh KRTAP10-11 (11738290_x_at) / RFU MYO3A (11730013_a_at) / Fold change /veh MYO3A (11730013_a_at) / RFU EBF3 (11725865_a_at) / Fold change /veh EBF3 (11725865_a_at) / RFU CAMK2N1 (11719241_x_at) / Fold change /veh CAMK2N1 (11719241_x_at) / RFU C5orf56 (11738088_a_at) / Fold change /veh C5orf56 (11738088_a_at) / RFU OLFML3 (11715873_a_at) / Fold change /veh OLFML3 (11715873_a_at) / RFU LOC100653217 /// NTM (11731650_a_at) / Fold change /veh LOC100653217 /// NTM (11731650_a_at) / RFU MAPK11 (11762145_a_at) / Fold change /veh MAPK11 (11762145_a_at) / RFU FIZ1 (11724087_x_at) / Fold change /veh FIZ1 (11724087_x_at) / RFU OASL (11726364_x_at) / Fold change /veh OASL (11726364_x_at) / RFU SOX15 (11748057_x_at) / Fold change /veh SOX15 (11748057_x_at) / RFU CD79A (11719716_a_at) / Fold change /veh CD79A (11719716_a_at) / RFU HIST1H1D (11736915_at) / Fold change /veh HIST1H1D (11736915_at) / RFU CASKIN2 (11723855_a_at) / Fold change /veh CASKIN2 (11723855_a_at) / RFU LOC730098 (11760151_x_at) / Fold change /veh LOC730098 (11760151_x_at) / RFU OR4N2 (11742367_at) / Fold change /veh OR4N2 (11742367_at) / RFU PRRT2 (11749266_a_at) / Fold change /veh PRRT2 (11749266_a_at) / RFU SNX32 (11753110_a_at) / Fold change /veh SNX32 (11753110_a_at) / RFU CDHR5 (11726645_a_at) / Fold change /veh CDHR5 (11726645_a_at) / RFU RCAN1 (11760418_a_at) / Fold change /veh RCAN1 (11760418_a_at) / RFU FAM167A (11723789_a_at) / Fold change /veh FAM167A (11723789_a_at) / RFU FAM26E (11764081_at) / Fold change /veh FAM26E (11764081_at) / RFU ISYNA1 (11749810_s_at) / Fold change /veh ISYNA1 (11749810_s_at) / RFU ACY1 (11761880_at) / Fold change /veh ACY1 (11761880_at) / RFU 11764098_at / Fold change /veh 11764098_at / RFU SAMD14 (11745864_x_at) / Fold change /veh SAMD14 (11745864_x_at) / RFU NPB (11741838_a_at) / Fold change /veh NPB (11741838_a_at) / RFU TMPRSS6 (11731388_a_at) / Fold change /veh TMPRSS6 (11731388_a_at) / RFU KRTAP10-2 (11738614_at) / Fold change /veh KRTAP10-2 (11738614_at) / RFU ARHGAP8 /// PRR5-ARHGAP8 (11727945_x_at) / Fold change /veh ARHGAP8 /// PRR5-ARHGAP8 (11727945_x_at) / RFU KRTAP5-7 /// NADSYN1 (11734609_at) / Fold change /veh KRTAP5-7 /// NADSYN1 (11734609_at) / RFU RASL12 (11751679_a_at) / Fold change /veh RASL12 (11751679_a_at) / RFU CDKN2B (11736163_a_at) / Fold change /veh CDKN2B (11736163_a_at) / RFU PRF1 (11729649_at) / Fold change /veh PRF1 (11729649_at) / RFU, ZNF638 /// ZNF638-IT1 / Fold change vs veh, ZNF638 /// ZNF638-IT1 / RFU, PANK3 / Fold change vs veh, PANK3 / RFU, SH3YL1 / Fold change vs veh, SH3YL1 / RFU, ZEB2 / Fold change vs veh, ZEB2 / RFU, NRIP1 / Fold change vs veh, NRIP1 / RFU, PTTG1IP / Fold change vs veh, PTTG1IP / RFU, CAPN2 / Fold change vs veh, CAPN2 / RFU, MED14 / Fold change vs veh, MED14 / RFU, SNORA58 / Fold change vs veh, SNORA58 / RFU, C1orf63 / Fold change vs veh, C1orf63 / RFU, LRRFIP1 / Fold change vs veh, LRRFIP1 / RFU, NDUFAF7 / Fold change vs veh, NDUFAF7 / RFU, SLC12A2 / Fold change vs veh, SLC12A2 / RFU, IBTK / Fold change vs veh, IBTK / RFU, ESF1 / Fold change vs veh, ESF1 / Fold change vs veh, TMEM50B / RFU, TAOK1 / Fold change vs veh, TAOK1 / RFU, ACBD3 / Fold change vs veh, ACBD3 / RFU, TMA16 / Fold change vs veh, TMA16 / RFU, RWDD3 / Fold change vs veh, RWDD3 / RFU, BCAT1 / Fold change vs veh, BCAT1 / RFU, EDEM3 / Fold change vs veh, EDEM3 / RFU, TMEM33 / Fold change vs veh, TMEM33 / RFU, WDR75 / Fold change vs veh, WDR75 / RFU, AHCTF1 / Fold change vs veh, AHCTF1 / RFU, TFRC / Fold change vs veh, TFRC / RFU, ZDHHC17 / Fold change vs veh, ZDHHC17 / RFU, NOM1 / Fold change vs veh, NOM1 / RFU, ARL8B / Fold change vs veh, ARL8B / RFU, ZBTB11 / Fold change vs veh, ZBTB11 / RFU, TAMM41 / Fold change vs veh, TAMM41 / RFU, KIAA1704 /// LOC100996395 / Fold change vs veh, KIAA1704 /// LOC100996395 / RFU, ING1 / Fold change vs veh, ING1 / RFU, TRMT61B / Fold change vs veh, TRMT61B / RFU, FUBP3 / Fold change vs veh, FUBP3 / RFU, TP53 / Fold change vs veh, TP53 / RFU, TNKS2 / Fold change vs veh, TNKS2 / RFU, ZFP14 / Fold change vs veh, ZFP14 / RFU, ACTR2 / Fold change vs veh, ACTR2 / RFU, PPP3R1 / Fold change vs veh, PPP3R1 / RFU, PIK3R1 / Fold change vs veh, PIK3R1 / RFU, HNRNPA1 / Fold change vs veh, HNRNPA1 / RFU, RNF170 / Fold change vs veh, RNF170 / RFU, ZNF28 / Fold change vs veh, ZNF28 / RFU, RNGTT / Fold change vs veh, RNGTT / RFU, OGT / Fold change vs veh, OGT / RFU, BRD1 / Fold change vs veh, BRD1 / RFU, MARS / Fold change vs veh, MARS / RFU, ZNF655 / Fold change vs veh, ZNF655 / RFU, FAHD1 / Fold change vs veh, FAHD1 / RFU, BDP1 / Fold change vs veh, BDP1 / RFU, LRRCC1 / Fold change vs veh, LRRCC1 / RFU, ARID1A / Fold change vs veh, ARID1A / RFU, ZNF146 / Fold change vs veh, ZNF146 / RFU, ZNF330 / Fold change vs veh, ZNF330 / RFU, GPN3 / Fold change vs veh, GPN3 / RFU, C9orf123 / Fold change vs veh, C9orf123 / RFU, N4BP2L2 / Fold change vs veh, N4BP2L2 / RFU, ARFIP1 / Fold change vs veh, ARFIP1 / RFU, FAM179B / Fold change vs veh, FAM179B / RFU, BCL10 / Fold change vs veh, BCL10 / RFU, UHRF1BP1L / Fold change vs veh, UHRF1BP1L / RFU, BET1 / Fold change vs veh, BET1 / RFU, CNOT2 / Fold change vs veh, CNOT2 / RFU, ZNF268 / Fold change vs veh, ZNF268 / Fold change vs veh, ZNF507 / RFU, DGCR2 / Fold change vs veh, DGCR2 / RFU, WDSUB1 / Fold change vs veh, WDSUB1 / Fold change vs veh, HSP90B1 /// MIR3652 / RFU, ADSS / Fold change vs veh, ADSS / RFU, GK / Fold change vs veh, GK / RFU, ZNF148 / Fold change vs veh, ZNF148 / RFU, TAF9 / Fold change vs veh, TAF9 / RFU, SLC1A5 / Fold change vs veh, SLC1A5 / RFU, SLMO2 / Fold change vs veh, SLMO2 / RFU, ABCC4 / Fold change vs veh, ABCC4 / RFU, LOC101060439 /// RAP1B / Fold change vs veh, LOC101060439 /// RAP1B / RFU, RFX7 / Fold change vs veh, RFX7 / RFU, GTPBP10 / Fold change vs veh, GTPBP10 / RFU, CNEP1R1 / Fold change vs veh, CNEP1R1 / RFU, BIVM-ERCC5 /// ERCC5 / Fold change vs veh, BIVM-ERCC5 /// ERCC5 / RFU, ILF3 / Fold change vs veh, ILF3 / RFU 11762660_at / Fold change /veh 11762660_at / RFU VCAN (11757783_s_at) / Fold change /veh VCAN (11757783_s_at) / RFU DDX43 (11728927_at) / Fold change /veh DDX43 (11728927_at) / RFU KRT8 (11758188_x_at) / Fold change /veh KRT8 (11758188_x_at) / RFU NKD1 (11759106_at) / Fold change /veh NKD1 (11759106_at) / RFU SRD5A1 (11742802_a_at) / Fold change /veh SRD5A1 (11742802_a_at) / RFU TPSAB1 /// TPSB2 (11721975_s_at) / Fold change /veh TPSAB1 /// TPSB2 (11721975_s_at) / RFU GSTM3 (11746129_a_at) / Fold change /veh GSTM3 (11746129_a_at) / RFU IL23R (11737362_x_at) / Fold change /veh IL23R (11737362_x_at) / RFU TMEM51 (11727254_a_at) / Fold change /veh TMEM51 (11727254_a_at) / RFU PIWIL2 (11732686_x_at) / Fold change /veh PIWIL2 (11732686_x_at) / RFU ORM1 (11744905_x_at) / Fold change /veh ORM1 (11744905_x_at) / RFU CCDC152 (11743942_at) / Fold change /veh CCDC152 (11743942_at) / RFU ECM1 (11717891_a_at) / Fold change /veh ECM1 (11717891_a_at) / RFU IL23R (11748794_a_at) / Fold change /veh IL23R (11748794_a_at) / RFU TNFAIP8L3 (11732012_x_at) / Fold change /veh TNFAIP8L3 (11732012_x_at) / RFU MBOAT4 (11741988_at) / Fold change /veh MBOAT4 (11741988_at) / RFU 11764193_at / Fold change /veh 11764193_at / RFU TMEM53 (11763286_at) / Fold change /veh TMEM53 (11763286_at) / RFU MAGEB2 (11727129_at) / Fold change /veh MAGEB2 (11727129_at) / RFU TMEM200A (11744735_a_at) / Fold change /veh TMEM200A (11744735_a_at) / RFU CCDC152 (11751479_a_at) / Fold change /veh CCDC152 (11751479_a_at) / RFU FAM211A (11726209_a_at) / Fold change /veh FAM211A (11726209_a_at) / RFU RGS16 (11746705_a_at) / Fold change /veh RGS16 (11746705_a_at) / RFU VCAN (11755009_s_at) / Fold change /veh VCAN (11755009_s_at) / RFU RHOB (11743442_s_at) / Fold change /veh RHOB (11743442_s_at) / RFU RGS16 (11720943_a_at) / Fold change /veh RGS16 (11720943_a_at) / RFU RGS16 (11720944_at) / Fold change /veh RGS16 (11720944_at) / RFU, VPS4B / Fold change vs veh, VPS4B / RFU, CREB1 / Fold change vs veh, CREB1 / RFU, DNAJC13 / Fold change vs veh, DNAJC13 / RFU, GNAQ / Fold change vs veh, GNAQ / RFU, CDK5R1 / Fold change vs veh, CDK5R1 / RFU, ZRANB3 / Fold change vs veh, ZRANB3 / RFU, CUL4A / Fold change vs veh, CUL4A / RFU, CCNY / Fold change vs veh, CCNY / RFU, UFL1 / Fold change vs veh, UFL1 / RFU, COG3 / Fold change vs veh, COG3 / RFU, DIAPH2 / Fold change vs veh, DIAPH2 / RFU, SKA2 / Fold change vs veh, SKA2 / RFU, AFF3 / Fold change vs veh, AFF3 / RFU, LMF1 / Fold change vs veh, LMF1 / RFU, IPO11 / Fold change vs veh, IPO11 / RFU, DFFB / Fold change vs veh, DFFB / RFU, FOXP1 / Fold change vs veh, FOXP1 / RFU, CARD8 / Fold change vs veh, CARD8 / RFU, STRN3 / Fold change vs veh, STRN3 / RFU, ADK / Fold change vs veh, ADK / RFU, RASSF2 / Fold change vs veh, RASSF2 / RFU, WIPF1 / Fold change vs veh, WIPF1 / RFU, LARP1B / Fold change vs veh, LARP1B / RFU, RASA1 / Fold change vs veh, RASA1 / RFU, RB1 / Fold change vs veh, RB1 / RFU, PPFIA1 / Fold change vs veh, PPFIA1 / RFU, MAT2A / Fold change vs veh, MAT2A / RFU, CCT5 / Fold change vs veh, CCT5 / RFU, WDR92 / Fold change vs veh, WDR92 / RFU, CUX1 / Fold change vs veh, CUX1 / RFU, TTC7A / Fold change vs veh, TTC7A / RFU, TMEM135 / Fold change vs veh, TMEM135 / RFU, DEPTOR / Fold change vs veh, DEPTOR / RFU, CPM / Fold change vs veh, CPM / RFU, DNAJB6 / Fold change vs veh, DNAJB6 / RFU, CACNA2D3 / Fold change vs veh, CACNA2D3 / RFU, DTX4 / Fold change vs veh, DTX4 / RFU, TFCP2 / Fold change vs veh, TFCP2 / RFU, GMCL1 /// GMCL1P1 / Fold change vs veh, GMCL1 /// GMCL1P1 / RFU, AEBP2 / Fold change vs veh, AEBP2 / RFU, SNHG1 /// SNORD22 /// SNORD25 /// SNORD26 /// SNORD27 /// SNORD28 /// SNORD29 /// SNORD31 / Fold change vs veh, SNHG1 /// SNORD22 /// SNORD25 /// SNORD26 /// SNORD27 /// SNORD28 /// SNORD29 /// SNORD31 / Fold change (Aza/veh), C12orf56 (ProbeSet 11735607_a_at) / Fold change (ACY-1035/veh), C12orf56 (ProbeSet 11735607_a_at) / Fold change (Aza/veh), FGFR1OP (ProbeSet 11751329_s_at) / Fold change (ACY-1035/veh), FGFR1OP (ProbeSet 11751329_s_at) / Fold change (Aza/veh), VPS36 (ProbeSet 11739960_a_at) / Fold change (ACY-1035/veh), VPS36 (ProbeSet 11739960_a_at) / RFU SYPL1 (11715823_x_at) / Fold change /veh SYPL1 (11715823_x_at) / RFU IGFBP7 (11715501_s_at) / Fold change /veh IGFBP7 (11715501_s_at) / RFU REEP3 (11722064_at) / Fold change /veh REEP3 (11722064_at) / RFU IGLL1 (11728026_x_at) / Fold change /veh IGLL1 (11728026_x_at): dose or concentration left out as unconfirmed. The settings on record: MV-4-11 cells, 48 hours.

Turning to `Nc1ncn([C@@H]2O[C@H](CO)[C@@H](O)[C@H]2O)c(=O)n1` [azacitidine], the “Fold change /veh CCDC152 (11743942_at)” value was 1.57.
